According to patent US20110237605A1, “Molecular Crystal of (4-(1,8-Naphthyridin-2-YL)Piperidin-1-YL)Pyrimidine Derivative” (priority 2010, published 2011):

Assay: Physical (polymorph) stability of suspension to bead milling and autoclaving, followed by XRPD
Assay type: physicochemical
Description: The following experiment evidences such stability of the claimed molecular crystal.
A 30 mg/ml suspension of the compound having Formula I (referred to as “BOL-303050”) was made in PBS-0.15% Polysorbate 80 and put in a vial. The contents of the vial were milled by 1 mm zirconia milling beads for 5 times, 2 minutes each at 2400 rpm in a DAC 150 FV Speedmixer and shaken to suspend the drug. An aliquot was withdrawn for XRPD (see FIG. 4, suspension milled). The withdrawn aliquot was centrifuged and dried before XRPD scan.
The remainder of the vial contents was autoclaved at 121° c. for 30 minutes. After autoclaving another sample was removed for XRPD (see FIG. 4, suspension milled and autoclaved). Sample was centrifuged and dried before XRPD scan.
To the remaining sample, 1 mm zirconia milling beads were added and the sample was milled 5 times, for 2 minutes each at 2400 rpm in a DAC 150 FV Speedmixer. After bead milling, a sample was removed for XRPD (see FIG. 4, suspension milled, autoclaved then milled again). Sample was centrifuged and dried before XRPD scan.
The remainder was autoclaved at 121° C. for 30 minutes (see FIG. 4, suspension milled, autoclaved, milled again, then autoclaved). Sample was centrifuged and dried before XRPD scan.
Samples were compared to the XRPD spectrum of the original API sample.

SMILES	polymorphic change by XRPD on autoclaving (30 mg/ml suspension in PBS-0.15% Polysorbate 80, milled, autoclaved at 121° C. for 30 minutes (initial cycle))	effect of milling on drug polymorph by XRPD (1 mm zirconia milling beads, 5 times, 2 minutes each at 2400 rpm)	stability of crystal form, comparison of XRPD spectra (FIG. 4) (further milling and/or autoclaving)	effect of subsequent autoclaving on polymorph by XRPD (milled, autoclaved, milled again, then autoclaved at 121° C. for 30 minutes)
COc1ccc(S(=O)(=O)N[C@@H](CNc2nc(C)nc(N3CCC(c4ccc5c(n4)NCCC5)CC3)c2C)C(=O)O)cc1 [BOL-303050, (S)-3-(2,5-dimethyl-6-(4-(5,6,7,8-tetrahydro-1,8-naphthyridin-2-yl)piperidin-1-yl)pyrimidin-4-ylamino)-2-(4-methoxyphenylsulfonamido)propanoic acid]	polymorphic changes occurred only during the initial autoclave cycle	did not affect the drug polymorph	–	–
COc1ccc(S(=O)(=O)N[C@@H](CNc2nc(C)nc(N3CCC(c4ccc5c(n4)NCCC5)CC3)c2C)C(=O)O)cc1 [claimed novel drug polymorph, (S)-3-(2,5-dimethyl-6-(4-(5,6,7,8-tetrahydro-1,8-naphthyridin-2-yl)piperidin-1-yl)pyrimidin-4-ylamino)-2-(4-methoxyphenylsulfonamido)propanoic acid]	–	–	stable	did not affect the claimed novel drug polymorph
